Experimental data reported in US20210205329A1 (The University of North Carolina at Chapel Hill, priority 2018, published 2021).

Legend:
TLR2/MD-2 interaction = biological target: T1, TLR2/MD-2 interaction (Mus musculus, UniProt Q9QUN7); assay: TLR2/MD-2 co-immunoprecipitation (negative control) in LPS-treated RAW264.7 cells; type: cell-based; settings: 1.0 μM; LPS 1 μg/ml; 24 hrs post-treatment
T1 construct: endogenous in cells; host or cells: RAW264.7
Description: (§1) Co-Immunoprecipitation Assay RAW264.7 cells [treated with LPS (1 μg/ml), 3α,5α-THP (1 μM) or pregnenolone (1 μM)] were exposed to chemical protein crosslinking (Poulopoulos et al, 2009) at 24 hrs post-treatment. Briefly, the cells were incubated (20 min on ice) with 1 mM of the cleavable, membrane-permeable crosslinker DSP (Thermo Fisher Scientific, Cat. #PG82081). Rat VTA homogenates were incubated (20 min on ice) with 200 μM of DSP. The crosslinker was quenched in 1 M Tris buffer (pH 7.5) (to a final concentration of 10-20 mM), and the material was centrifuged at 21,000×g for 15 min. Proteins from the cells were extracted with Pierce IP Lysis Buffer (Thermo Fisher Scientific, Cat. #87787) supplemented with protease and phosphatase inhibitor cocktails (Sigma). Proteins from the VTA were extracted with CelLytic MT (dialyzable mild detergent, bicine and 150 mM NaCl; Sigma Aldrich, St. Louis, Mo., USA, Cat. #C3228) supplemented with protease and phosphatase inhibitor cocktails (Sigma) according to the manufacturers instructions. […]

TLR4/MD-2 complex = biological target: T2, TLR4/MD-2 complex (Mus musculus, UniProt Q9QUK6); assay: TLR4/MD-2 co-immunoprecipitation in LPS-treated RAW264.7 cells; type: cell-based; settings: 1.0 μM; LPS 1 μg/ml; 24 hrs post-treatment
T2 construct: protein extracts were collected 24 hrs post-treatment and immunoprecipitated with antibody to TLR4; endogenous in cells; host or cells: RAW264.7
T2 sequence (Q9QUK6 26-835): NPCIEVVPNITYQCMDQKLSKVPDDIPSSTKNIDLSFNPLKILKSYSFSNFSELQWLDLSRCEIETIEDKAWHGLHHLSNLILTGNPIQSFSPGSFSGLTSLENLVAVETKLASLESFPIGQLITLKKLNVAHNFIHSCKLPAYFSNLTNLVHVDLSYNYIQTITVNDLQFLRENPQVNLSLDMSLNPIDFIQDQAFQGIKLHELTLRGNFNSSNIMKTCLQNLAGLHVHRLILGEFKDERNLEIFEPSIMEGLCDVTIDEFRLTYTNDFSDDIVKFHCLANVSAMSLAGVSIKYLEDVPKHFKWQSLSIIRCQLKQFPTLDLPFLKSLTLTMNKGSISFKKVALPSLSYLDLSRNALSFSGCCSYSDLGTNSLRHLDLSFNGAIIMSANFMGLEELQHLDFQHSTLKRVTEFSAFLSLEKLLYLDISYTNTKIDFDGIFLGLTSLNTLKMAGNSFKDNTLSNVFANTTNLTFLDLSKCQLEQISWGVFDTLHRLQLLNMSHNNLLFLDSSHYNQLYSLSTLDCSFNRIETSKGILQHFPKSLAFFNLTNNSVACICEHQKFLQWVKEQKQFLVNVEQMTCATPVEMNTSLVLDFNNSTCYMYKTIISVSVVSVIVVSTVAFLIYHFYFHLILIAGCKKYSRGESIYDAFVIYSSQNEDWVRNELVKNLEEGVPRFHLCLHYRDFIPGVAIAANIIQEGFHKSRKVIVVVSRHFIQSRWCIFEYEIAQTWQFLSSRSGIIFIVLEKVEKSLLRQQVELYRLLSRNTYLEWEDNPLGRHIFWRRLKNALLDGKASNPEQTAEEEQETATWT
Description: as §1

T1 sequence (Q9QUN7 25-784): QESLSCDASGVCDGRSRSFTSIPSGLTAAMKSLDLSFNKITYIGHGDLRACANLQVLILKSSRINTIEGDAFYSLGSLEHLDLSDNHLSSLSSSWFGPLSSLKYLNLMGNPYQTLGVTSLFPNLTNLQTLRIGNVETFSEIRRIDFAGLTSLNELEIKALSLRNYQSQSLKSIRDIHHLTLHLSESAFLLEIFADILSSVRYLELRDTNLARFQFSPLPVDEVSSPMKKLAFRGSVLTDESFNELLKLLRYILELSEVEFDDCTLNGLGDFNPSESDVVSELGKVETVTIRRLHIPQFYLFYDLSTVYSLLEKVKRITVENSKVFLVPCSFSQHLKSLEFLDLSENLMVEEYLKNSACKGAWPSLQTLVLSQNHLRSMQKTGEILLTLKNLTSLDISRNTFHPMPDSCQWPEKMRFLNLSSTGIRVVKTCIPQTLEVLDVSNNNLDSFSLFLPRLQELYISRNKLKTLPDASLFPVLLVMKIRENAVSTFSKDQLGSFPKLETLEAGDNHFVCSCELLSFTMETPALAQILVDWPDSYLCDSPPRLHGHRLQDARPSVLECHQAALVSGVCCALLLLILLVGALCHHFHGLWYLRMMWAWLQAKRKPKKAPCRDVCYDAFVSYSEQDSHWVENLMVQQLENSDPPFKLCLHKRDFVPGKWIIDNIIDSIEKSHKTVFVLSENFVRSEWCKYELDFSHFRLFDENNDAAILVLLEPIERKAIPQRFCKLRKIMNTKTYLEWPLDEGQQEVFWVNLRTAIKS

CC(=O)[C@H]1CC[C@H]2[C@@H]3CC[C@H]4C[C@H](O)CC[C@]4(C)[C@H]3CC[C@]12C [3α,5α-THP, (3α,5α)3-hydroxypregnan-20-one]
TLR2/MD-2 co-immunoprecipitation (TLR2/MD-2 interaction): not altered | reduction of MD-2 co-precipitated with TLR4 (TLR4/MD-2 complex): 45.4±6.9%

CC(=O)[C@H]1CC[C@H]2[C@@H]3CC=C4C[C@@H](O)CC[C@]4(C)[C@H]3CC[C@]12C [pregnenolone]
TLR2/MD-2 co-immunoprecipitation (TLR2/MD-2 interaction): not altered | reduction of MD-2 co-precipitated with TLR4 (TLR4/MD-2 complex): 57.2±7.3%
